Several values for one entry are separate records, joined by “and”; a condition that tells them apart may be missing. Equal entries are not always repeated.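 Test compounds were applied to cells in 96-well plates for 48 hours at 5 doses. GI50 = concentration required for 50% inhibition of growth. The concentration for full growth arrest is given as TGI.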

The assay relates to MDA-MB-468 breast. Put plainly: DTP human tumour cell line panel, 48 h.
By GI50 is commonly meant the concentration giving 50% growth inhibition. A word on the TGI: it is the concentration giving total growth inhibition. A higher TGI goes with less potent growth arrest. As for `CCN(CC)CCOCC[C@H]1CC[C@H]2[C@@H]3[C@H](C)Cc4cc(OS(N)(=O)=O)ccc4[C@H]3CC[C@]12C`, the GI50 was 0.259 µM and the TGI came out at 1.36 µM.

For the molecule `C=CC[n+]1c(/C=C/C=C2\N(C)c3ccccc3C2(C)C)sc2ccc(OC)cc21`, the GI50 was 0.0297 µM and the total growth inhibition concentration (TGI) was 1.05 µM.

Take `CC(=O)N[C@@H](Cc1ccc(OP(=O)(O)O)cc1)C(=O)N[C@H]1CCC(=O)N2CCC[C@@H](C(=O)NCc3ccc(Cl)cc3)N2C1=O`: the GI50 is greater than 25 µM and the TGI was greater than 25 µM.

For `C[C@@H]1COCCN1c1cc(C2([S@](C)(=N)=O)CC2)nc(-c2ccnc3[nH]ccc23)n1`, the GI50 is 3.12 µM and 4.14 µM; the concentration for total growth inhibition (TGI) was 27.2 µM and > 10 µM.

On to `N#Cc1c(-c2ccccc2)nc(SCC2CO2)nc1N1CCOCC1` (configuration not stated), for which the GI50 was 4.15 µM and the TGI was greater than 68.4 µM.

In the case of `Cn1cc(-c2ccc3c(Nc4cccc(NC(=O)Nc5cccc(F)c5)c4)ncnc3c2)cn1`, the GI50 was 0.107 µM and the TGI is 1.64 µM.

Consider `COc1cc2c(cc1O)CC[C@@H]1[C@@H]2CC[C@]2(C)[C@@H](NCCN(C)C)CC[C@@H]12`, for which the 50% growth inhibitory concentration (GI50) is 0.126 µM and the TGI was found to be 0.499 µM.

As for `CC(C)[C@]12O[C@H]1[C@@H]1O[C@]13[C@]1(O[C@H]1C[C@H]1C4=C(CC[C@@]13C)C(=O)OC4)[C@@H]2O`, the GI50 was 0.0176 µM and the total growth inhibition concentration (TGI) was 0.0385 µM.

As for `CCN1CCN(Cc2ccc(-c3cc4c(N[C@H](C)c5ccccc5)ncnc4[nH]3)cc2)CC1`, the 50% growth inhibitory concentration (GI50) was 0.0202 µM and 0.0419 µM; the concentration for total growth inhibition (TGI) was 0.286 µM and 0.481 µM.

As for `Cc1ccc2c(c1)C(C)Cc1c(ncnc1-n1cnc3ccccc31)N2C` (configuration not stated), the 50% growth inhibitory concentration (GI50) was 0.262 µM and the total growth inhibition concentration (TGI) turned out to be 23.2 µM.

With `O=C(NNc1nc2cc(F)ccc2n2c(CN3CCCC3)ccc12)c1cnccn1`, the GI50 was 1.6 µM and the concentration for total growth inhibition (TGI) came out at 6.9 µM.

`CCNC(=O)[C@@H]1CCCN2C(=O)CC[C@H](NC(=O)[C@H](Cc3ccc(OP(=O)(O)O)cc3)NC(C)=O)C(=O)N12`: the GI50 is greater than 25 µM and the total growth inhibition concentration (TGI) was greater than 25 µM.

Turning to `CC1(C)N=C(N)N=C(N)N1c1cccc(CCCCc2cccc(S(=O)(=O)F)c2)c1`, the GI50 is 0.748 µM and the concentration for total growth inhibition (TGI) was determined as 26.4 µM.

Consider `Nc1ccc2c(c1)C(=O)C(=O)c1c-2nc2ccccn12`, for which the GI50 was 1.53 µM and the total growth inhibition concentration (TGI) came to 3.11 µM.

Consider `OC(c1cccc(-n2ccc(C(F)(F)F)n2)c1)c1cnccc1NC1CCCCCC1` (configuration not stated), for which the GI50 is 1.64 µM and the TGI amounted to 3.28 µM.

Consider `COc1ccc2[nH]c(=O)c3c4ccccc4cn3c2c1`, for which the GI50 was 0.179 µM and the TGI amounted to 1.36 µM.

As to `COC(=O)CCC(=O)C(=O)OC`, the GI50 was 90800 µM and the TGI is greater than 100000 µM.

With `Nc1c(C(=O)c2cccc(CCCN3CCOCC3)c2)cnn1-c1ccc(F)cc1`, the GI50 is greater than 20.1 µM and the total growth inhibition concentration (TGI) is greater than 25 µM.

In the case of `FC(F)(F)Oc1cccc(-c2cnc3ccc(-c4ccncc4)nn23)c1`, the GI50 is 0.59 µM and the TGI is 3.77 µM.

In the case of `CC12CCC3C(CCC4Cc5[nH]c6ccccc6c5CC43C)C1CCC2O` (configuration not stated), the GI50 is 2.78 µM and the TGI was greater than 100 µM.

Regarding `COc1ccc(C2CC(c3cc(OC)c(OC)c(OC)c3)=NO2)cc1OCCCCOc1cc2c(cc1OC)C(=O)N1CCC[C@H]1C=N2` (some centres not stated), the GI50 was 1.34 µM and the TGI is 2.97 µM.

Take `F`: the GI50 is 4500 µM and the TGI is greater than 6870 µM.

Take `Cc1cccc(NC(=O)CCc2ccc(N3C(N)=NC(N)=NC3(C)C)cc2)c1`: the GI50 is 0.692 µM and the TGI is greater than 51.4 µM.

Regarding `Nc1cc(-c2c[nH]c3ccc(F)cc23)nc2cc(-c3c[nH]c4ccc(F)cc34)nn12`, the GI50 is 2.01 µM and the TGI is 3.84 µM.

Take `COc1cc(C(=O)/C=C/c2c(C)n([O-])c3ccc(C)cc3[n+]2=O)cc(OC)c1OC`: the GI50 is 2.59 µM and the TGI is 9.94 µM.

As to `CCSCC1CC(O)(c2ccccc2)C(c2ccccc2)C(c2ccc(Cl)cc2)O1` (configuration not stated), the GI50 is 1.7 µM and the TGI turned out to be 3.55 µM.

Take `N#Cc1cnc2ccc(-c3cnc(N)nc3)cc2c1N1CCc2cc(F)c(Cl)cc21`: the GI50 was 0.38 µM and the TGI came out at 2.04 µM.

Turning to `CCS(=O)(=O)N1CCC(C(C)n2c(C)c(C(=O)NCc3c(OC)cc(C)[nH]c3=O)c3ccccc32)CC1` (configuration not stated), the GI50 is 92 µM and the TGI was greater than 100 µM.

Turning to `O=C(NC1CCN(Cc2ccccc2)CC1)c1cc(-c2ccncc2)nc2ccc(Cl)cc12`, the GI50 was 6.82 µM and the concentration for total growth inhibition (TGI) stood at 37 µM.

For the molecule `COc1cc(NS(C)(=O)=O)ccc1Nc1c2ccc([N+](=O)[O-])cc2nc2c(C)cccc12`, the 50% growth inhibitory concentration (GI50) was 0.246 µM and the total growth inhibition concentration (TGI) was 0.873 µM.

As to `Cc1ccc([N+](=O)[O-])cc1NC(=O)Nc1cccc(F)c1`, the GI50 is 3.6 µM and the TGI was determined as 24.7 µM.

As to `CN(C)CCOc1ccc(-c2nc(-c3ccc4c(c3)CC/C4=N\O)c(-c3ccncc3)[nH]2)cc1`, the GI50 was 3.63 µM and 2.74 µM; the TGI is 7.37 µM and 24.4 µM.

On to `Clc1ccc(CSC(Cn2ccnc2)c2ccc(Cl)cc2Cl)cc1` (configuration not stated), for which the GI50 is 1.39 µM and the total growth inhibition concentration (TGI) turned out to be 3.37 µM.

Take `C=C1C(=O)O[C@H]2[C@H]1CC/C(CNC(=O)Cc1c[nH]c3ccccc13)=C\CC[C@@]1(C)O[C@@H]21`: the GI50 was 0.795 µM and the concentration for total growth inhibition (TGI) was 2.73 µM.

For `COc1ccc2oc(=O)cc(C(c3ccc[nH]3)c3ccc[nH]3)c2c1`, the concentration for 50% growth inhibition (GI50) is 0.344 µM and the TGI is 3.34 µM.

Take `COc1ccc(CC(C)=C(c2ccc(OCCN3CCCC3)cc2)c2ccc(OCCN3CCCC3)cc2)cc1`: the GI50 is 0.777 µM and the TGI is 3.1 µM.

(Values after PubChem BioAssay (NCI).)
